Data reported in patent US20030097221A1, “Detection and characterization of psychoactives using parallel multi-site assays in brain tissue” (priority 2001, published 2003).
Values joined by “and” are separate entries in the source; they are usually repeats but may differ in a detail not shown here. Equal entries are not always repeated.

Tests used:
Type in all cases: cell-based, rat
[1] = system: glutamate receptor-mediated evoked excitatory synaptic transmission, hippocampal slice mossy fibers; experiment: Paired-pulse evoked fEPSP, mossy fibers (assay MF50), MED64; conditions: 250 μM; 50 ms inter-pulse delay
Experimental: (§1) A 17-24 day old Sprague Dawley rat was decapitated after anesthesia with halothane (2-bromo-2-chloro-1,1,1-trifluoroethane; Sigma; B4388), and the whole brain was removed. The brain was immediately soaked for ˜2 min in ice-cold, oxygenated preparation buffer of the following composition (in mM): 124 NaCl, 26 NaHCO3, 10 glucose, 3 KCl, 1.25 NaH2PO4, 2 CaCl2, and 2 MgSO4. Appropriate portions of the brain were trimmed and placed on the ice-cold stage of a vibrating tissue slicer (Leica, Nussloch, Germany; VT-1000S). The stage was immediately filled with both oxygenated and frozen preparation buffers. The thickness of each tissue slice was 350 μm. […]
(§2) Evoked field potentials at all 64 sites (minus stimulation sites) were recorded simultaneously with the multichannel recording system (Panasonic: MED64 system) at a 20 kHz sampling rate. […]
(§3) All assays employ paired-pulse stimulation at various rat hippocampal sites to elicit evoked responses. The resulting field EPSP recordings were analyzed using Matlab software (The MathWorks, Inc.) by computing several response measures such as amplitude, halfwidth, and negative area, which apply to both the first and second evoked reponses. Amplitude was defined as the maximum depolarization magnitude relative to the average baseline reading prior to the first stimulation pulse. […]

[2] = system: glutamate receptor-mediated evoked excitatory synaptic transmission, hippocampal slice dentate gyrus; experiment: Paired-pulse evoked fEPSP in dentate gyrus (assay DG50), MED64
Experimental: as §1, with “μm. Each slice was gently taken off the blade, and immediately soaked in the oxygenated artificial cerebrospinal fluid (ACSF) for at least 1 hr at room temperature. Then a slice was placed on the center of the MED probe. The slice was positioned to cover the 8×8 array. After positioning the slice, the MED probe was immediately placed in a box filled with 95% O2 and 5% CO2.” for “μm.”
as §2, §3
The polarity of the evoked responses for assay DG50 was reversed before analysis because of the inverted voltage values recorded by the DG50 electrode. Assays SC50, SC200, MF50, and CA3-1—50, however, were analyzed without such a reversal. […]
(§4) All response paramters were utilized to quantify candidate sample composition effects on the hippocampus. […]

[3] = system: hippocampal slice regions (CA1, DG, MF); experiment: Comparison between regions of the slice, area under the curve for all 4 assays (FIG. 9); conditions: prediction drawn from the results of FIG. 9
Experimental: as §3, with “pulse. Halfwidth was defined as the duration of the depolarization phase of the evoked response at half its maximum amplitude value. Negative area was obtained by taking the magnitude of the integral of the evoked response curve over all segments with the same polarity as the depolarization phase. This integral spans a time window of 25 msec beginning one msec after the stimulation pulse.” for “pulse.”
as §4
To compare the response of tissue slices to candidate sample compositions between different regions of the slice, the area under the curve for all 4 assays was calculated.
To compare the effect of compounds in candidate sample compositions between different regions of a tissue slice, the area under the curve for all 4 assays was calculated. […]

[4] = system: glutamate receptor-mediated evoked excitatory synaptic transmission, hippocampal slice CA1; experiment: Paired-pulse evoked fEPSP in CA1, Schaffer collateral stimulation (assays SC50, SC200), MED64 multi-electrode array; design: key to SC 50 ms Amplitude fEPSP 1st, Mean / SC 50 ms Amplitude fEPSP 2nd, Mean / SC 200 ms Widths fEPSP 1st, Mean / SC 200 ms Widths fEPSP 2nd, Mean: fractional change vs. last 5 min of pre-wash-in control phase
Experimental: A 17-24 day old Sprague Dawley rat was decapitated after anesthesia with halothane (2-bromo-2-chloro-1,1,1-trifluoroethane; Sigma; B4388), and the whole brain was removed. The brain was immediately soaked for ˜2 min in ice-cold, oxygenated preparation buffer of the following composition (in mM): 124 NaCl, 26 NaHCO3, 10 glucose, 3 KCl, 1.25 NaH2PO4, 2 CaCl2, and 2 MgSO4. Appropriate portions of the brain were trimmed and placed on the ice-cold stage of a vibrating tissue slicer (Leica, Nussloch, Germany; VT-1000S). The stage was immediately filled with both oxygenated and frozen preparation buffers. The thickness of each tissue slice was 350 μm. Each slice was gently taken off the blade, and immediately soaked in the oxygenated artificial cerebrospinal fluid (ACSF) for at least 1 hr at room temperature. Then a slice was placed on the center of the MED probe. The slice was positioned to cover the 8×8 array. After positioning the slice, the MED probe was immediately placed in a box filled with 95% O2 and 5% CO2.
During recording, the slices were continuously perfused with a solution of the following composition: ACSF (in mM): 124 NaCl, 26 NaHCO3, 10 glucose, 3 KCl, 1.25 kH2PO4, 2 CaCl2, 1 MgSO4. All compounds were bath applied at known concentrations and were prepared daily from frozen aliquots. Compounds were purchased from Sigma. Ampakines (CX516, CX546, CX554) were made fresh everyday, and used at concentrations: CX516, 250 μM; CX546, 250 μM; and CX554, 30 μM.
Baseline, application, and recovery time was usually at 10, 20, and 30 min respectively.
During electrophysiological recording, the slices on the MED probe were placed in a small CO2 incubator (Asahi Lifescience; model 4020) at 32° C. The slices were placed on an interface, and a moisturized with a 95% O2 and 5% CO2 gas mixture.
Evoked field potentials at all 64 sites (minus stimulation sites) were recorded simultaneously with the multichannel recording system (Panasonic: MED64 system) at a 20 kHz sampling rate. In the case of the evoked response, one of the planar microelectrodes out of the 64 available was used for the stimulating cathode. Bipolar constant-current pulses (10-50 μA; 0.1 ms) were produced by the data acquisition software via the isolator. The stimulating microelectrode was selected by the 64-switch box.
All assays employ paired-pulse stimulation at various rat hippocampal sites to elicit evoked responses. The resulting field EPSP recordings were analyzed using Matlab software (The MathWorks, Inc.) by computing several response measures such as amplitude, halfwidth, and negative area, which apply to both the first and second evoked reponses. Amplitude was defined as the maximum depolarization magnitude relative to the average baseline reading prior to the first stimulation pulse. Halfwidth was defined as the duration of the depolarization phase of the evoked response at half its maximum amplitude value. Negative area was obtained by taking the magnitude of the integral of the evoked response curve over all segments with the same polarity as the depolarization phase. This integral spans a time window of 25 msec beginning one msec after the stimulation pulse.
Amplitudes and halfwidths for both first and second elicited responses were computed for assays SC50, SC200, and CA3-1—50. For DG50 only first and second amplitudes were computed. Negative areas for first and second responses were computed for SC50, SC200, CA3-1—50, and MF50.
All response paramters were utilized to quantify candidate sample composition effects on the hippocampus. For a given response parameter, the candidate sample composition effect was defined as the percent change of the average measure during the last five minutes of the wash-in phase with respect to the average measure of the last five minutes of the preceding, pre-wash-in control phase. […]

[5] = CX546 250 μM, individual slice files, normalized change over control
[6] = CX546 250 μM, n = 5, normalized change over control

mossy fibers' response (area) [1]: increase | responses recorded in dentate gyrus (amplitude) ([2]; 250 μM, 50 ms inter-pulse delay): decrease in the amplitude | second response (fEPSP) in DG ([2]; area under the curve, representative slices, FIG. 9, CX546 250 μM, CX554 30 μM per Example 3): not noticeably altered | half-width of both responses in CA1 ([4]; 250 μM, 50 ms or 200 ms delay between stimulation pulses): increase in the half-width | change of the first response (amplitude) ([4]; 250 μM, 50 ms protocol): no change | decrease in the second response amplitude ([4]; 250 μM, 50 ms protocol): 9±3% | effect on amplitude of both responses ([4]; 250 μM, 200 ms protocol): no effect | increase of the halfwidth of first and second fEPSP ([4]; 250 μM, 200 ms protocol, summary of Table 2): 14-15% | SC 50 ms Amplitude fEPSP 1st, Change over Control (%) ([4]; CX546 250 μM, n = 5): 3.296% | SC 50 ms Amplitude fEPSP 2nd, Change over Control (%) ([4]; CX546 250 μM, n = 5): −8.884% | SC 50 ms Widths fEPSP 1st, Change over Control (%) ([4]; CX546 250 μM, n = 5): 13.386% | SC 50 ms Widths fEPSP 2nd, Change over Control (%) ([4]; CX546 250 μM, n = 5): 3.276% | SC 200 ms Amplitude fEPSP 1st, Change over Control (%) ([4]; CX546 250 μM, n = 5): 3.764% | SC 200 ms Amplitude fEPSP 2nd, Change over Control (%) ([4]; CX546 250 μM, n = 5): 2.310% | SC 200 ms Widths fEPSP 1st, Change over Control (%) ([4]; CX546 250 μM, n = 5): 15.064% | SC 200 ms Widths fEPSP 2nd, Change over Control (%) ([4]; CX546 250 μM, n = 5): 16.206% | SC 50 ms Amplitude fEPSP 1st, Mean [4, 6]: 0.033 | SC 50 ms Amplitude fEPSP 2nd, Mean [4, 6]: −0.089 | SC 50 ms Widths fEPSP 1st, Mean [4, 6]: 0.134 | SC 50 ms Widths fEPSP 2nd, Mean [4, 6]: 0.033 | SC 200 ms Amplitude fEPSP 1st, Mean [4, 6]: 0.038 | SC 200 ms Amplitude fEPSP 2nd, Mean [4, 6]: 0.023 | SC 200 ms Widths fEPSP 1st, Mean [4, 6]: 0.151 | SC 200 ms Widths fEPSP 2nd, Mean [4, 6]: 0.162 | area of the second response (fEPSP) in CA1 ([4]; area under the curve, representative slices, FIG. 9): decreased
Compound: O=C(c1ccc2c(c1)OCCO2)N1CCCCC1 [CX546]
degree to which ampakines enhance activation of interneurons (rank order) [3]: CX554>CX546>CX516 | kind of modulation of the responses in CA1 (halfwidth vs amplitude) ([4]; CX516, CX546 250 μM, CX554 30 μM): selectively increases halfwidth but not the amplitude | SC 50 ms Amplitude fEPSP 1st [4, 5]: 0.063 and 0.087 and 0.012 and −0.022 and 0.025 | SC 50 ms Amplitude fEPSP 2nd [4, 5]: 0.022 and −0.124 (2×) and −0.130 and −0.088 | SC 50 ms Widths fEPSP 1st [4, 5]: 0.096 and 0.155 and 0.114 and 0.202 and 0.102 | SC 50 ms Widths fEPSP 2nd [4, 5]: 0.067 and 0.026 and −0.025 and 0.065 and 0.031 | SC 200 ms Amplitude fEPSP 1st [4, 5]: 0.064 and 0.083 and 0.028 and −0.007 and 0.021 | SC 200 ms Amplitude fEPSP 2nd [4, 5]: 0.047 and 0.061 and 0.011 and −0.015 and 0.013 | SC 200 ms Widths fEPSP 1st [4, 5]: 0.089 and 0.166 and 0.141 and 0.252 and 0.105 | SC 200 ms Widths fEPSP 2nd [4, 5]: 0.102 and 0.207 and 0.180 and 0.189 and 0.132
